From article PMC5848469 (Combinatorial chemistry & high throughput screening, 2015)

How the values were obtained:
KIT (D816V) = KIT (D816V) (Homo sapiens, UniProt P10721, D816V); assay: Kinase active site-directed competition binding assay; conditions: read-out: Percent Control at 10μM
KIT = KIT (Homo sapiens, UniProt P10721); assay: as above; conditions: read-out: Percent Control at 10μM
hookworm tubulin = conditions: cited from earlier work
mammalian tubulin = conditions: fold less potency than on hookworm tubulin; cited from earlier work

Chain of KIT (P10721 26-976): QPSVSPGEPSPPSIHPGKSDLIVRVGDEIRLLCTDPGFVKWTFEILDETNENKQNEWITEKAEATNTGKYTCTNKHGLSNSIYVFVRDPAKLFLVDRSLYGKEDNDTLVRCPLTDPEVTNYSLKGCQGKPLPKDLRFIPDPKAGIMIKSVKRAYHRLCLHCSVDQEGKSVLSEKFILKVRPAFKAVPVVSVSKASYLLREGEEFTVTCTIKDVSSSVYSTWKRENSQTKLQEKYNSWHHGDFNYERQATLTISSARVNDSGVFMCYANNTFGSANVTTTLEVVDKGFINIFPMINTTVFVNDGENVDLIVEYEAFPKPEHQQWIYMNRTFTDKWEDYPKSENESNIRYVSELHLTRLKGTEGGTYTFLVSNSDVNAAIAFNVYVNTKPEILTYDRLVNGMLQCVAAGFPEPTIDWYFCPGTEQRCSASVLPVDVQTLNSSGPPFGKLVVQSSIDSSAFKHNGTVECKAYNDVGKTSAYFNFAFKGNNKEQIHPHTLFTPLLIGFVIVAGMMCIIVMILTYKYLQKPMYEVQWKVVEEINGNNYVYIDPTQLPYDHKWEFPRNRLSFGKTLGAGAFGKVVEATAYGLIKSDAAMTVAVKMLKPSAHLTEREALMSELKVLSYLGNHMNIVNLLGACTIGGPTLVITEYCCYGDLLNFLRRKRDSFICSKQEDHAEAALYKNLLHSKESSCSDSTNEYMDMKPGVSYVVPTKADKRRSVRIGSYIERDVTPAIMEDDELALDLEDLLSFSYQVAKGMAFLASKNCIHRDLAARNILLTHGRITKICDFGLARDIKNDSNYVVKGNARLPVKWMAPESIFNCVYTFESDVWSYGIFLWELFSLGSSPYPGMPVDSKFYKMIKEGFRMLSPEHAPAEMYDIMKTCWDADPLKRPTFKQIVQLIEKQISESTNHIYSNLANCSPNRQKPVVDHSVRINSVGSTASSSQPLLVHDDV
Chain of KIT (D816V) (P10721 26-976 D816V): as the sequence (P10721 26-976) above, with D791V counted along it

## COC(=O)Nc1nc2ccc(C(=O)c3ccccc3)cc2[nH]1 [MBZ, mebendazole]
KIT (D816V)
  remaining binding at 10 µM: 33%
KIT
  remaining binding at 10 µM: 7.4%
Hookworm tubulin
  inhibition of hookworm tubulin (potency in words): potent nanomolar inhibition
Mammalian tubulin
  potency on mammalian tubulin relative to hookworm tubulin (fold less): 1000 x
